One data set concerns normolipemic rats. Nature of the data set: Reduction of serum lipid values in normolipemic rats (8 days oral). The class given is in vivo, rat. To be noted: 8 doses, male rats; for serum cholesterol, change in percentage (A: referred to the initial value) / serum triglyceride, change in percentage (A: referred to the initial value): column A; for serum cholesterol, change in percentage (B: referred to the untreated control group) / serum triglyceride, change in percentage (B: referred to the untreated control group): column B. The procedure: 1. Male rats having a normal serum lipid content were treated for eight days with different daily doses mentioned in Table 1. The values given in that Table stand for a change in the serum concentrations of certain lipid classes. The doses administered per os by means of an esophageal sound were 100, 30 and 10 mg/kg/day. Generally, prior to and after the treatment, blood samples were taken and the concentration of cholesterol in the serum was determined according to the method of Lauber and Richterich and that of triglycerides according to the method of Eggstein and Kreutz. In the examples of the following Table 1, the changes in the serum lipid values due to the treatment with the substances of the invention are defined as follows:
a. The changes in percent in the final value of the treated group, referred to the initial value of the treated group, the initial value being 100 percent, and
b. the change in the final value of the treated group, referred to the final value of an accompanying untreated control group, the untreated control group's value being defined as 100 percent. Thus, the value given in columns A is the change in percentage referred to the initial value, whereas the value given in columns B is the change in percentage of the treated group, referred to the untreated control group.

The subject of data set [1] is dietetic-medicamentous hyperlipemia of male rats. Nature of the data set: Action on the dietetic-medicamentous hyperlipemia of male rats. Type of data set: in vivo. The note with it: Rattus norvegicus, po, 192 h, 100 mg/kg/day p.o., 8 days, male rats on cholesterol diet. The source says:
All the animals were fed with a diet food containing 2% of cholesterol, 2% of sodium cholate, 0.3% of methyl-thiouracil, 20% of coco fat and 44% of cane sugar. The serum lipid concentration of the animals treated with the compounds of the invention was compared to that of an untreated control group on the same diet, which diet causes the serum cholesteral concentration to rise within 1 week to about 10 times the initial value, that of the serum triglycerides to 3 times and that of the phospho-lipids in the serum to 4 times the initial value. The lipid phosphorus was determined according to the method of Messrs. Boehringer Mannheim W. Germany. At the same time as the diet was offered, the compounds of the invention were administered once a day to groups of rats, each containing 10 animals, over a period of 8 days by means of an esophageal sound. The change in percentage in the serum lipid concentration as compared to the control group (diet without active substance) is indicated in Table 2.

The subject of data set [2] is hypertriglyceridemia induced by carbohydrates in male rats. Description: Action on the hypertriglyceridemia induced by carbohydrates (fructose) in male rats. The class given is in vivo. The note with it: Rattus norvegicus, 72 h, 3-day oral pre-treatment, vs untreated control, read-out: Change in percentage of hypertriglyceridemia induced by carbohydrates.
The test system of data set [3] is rats that had been fed fructose doses. Description: Hypoglycemic activity: lowering of the blood sugar level in rats fed fructose doses. To be noted: 100 mg/kg once a day over 3 days, 24 hours after last administration, vs placebo control group. Type of data set: in vivo, rat. The procedure: The hypoglycemic activity of some bis(4-hydroxy-phenyl) alkanoic acid derivatives of formulae I and II could be established by administering once a day, over 3 days, 100 mg of the active compound per kg of test animal to rats that had been fed fructose doses and by taking blood samples 24 hours after the last administration in order to determine the blood sugar level by means of an autoanalyzer.
The lowering of the blood sugar content indicated in following Table 4 refers to a control group treated with placebos (blank doses).

In a further data set the test system is mice. The note with it: Table 3.
The nature of the next data set: in vivo. To be noted: mouse, po.
Where [4] appears, read: read-out: serum cholesterol, change in percentage as compared to the control group.
[5] abbreviates: read-out: serum lipid phosphorus, change in percentage as compared to the control group.
[6] abbreviates: read-out: serum triglyceride, change in percentage as compared to the control group.

The record followed here is patent US4007282A, “Lowering lipid and sugar levels in the blood with a bis(4-hydroxyphenyl)alkanoic acid or ester thereof” (Hoechst Aktiengesellschaft, priority 1972, dated 1977).

For orientation: LD50 means the dose at which mortality reaches 50%. Read a high LD50 as a less toxic substance.

Like-named read-outs stand apart in the source and are kept apart here.

For the compound `CCCCOC(=O)CC(C)(c1ccc(O)c(C(C)(C)C)c1)c1ccc(O)c(C(C)(C)C)c1` [Example 7, 3,3-bis(4'-hydroxy-3'-tert.-butyl-phenyl)butanoic acid butyl ester], in the data set with normolipemic rats (100 mg/kg/day p.o.), the “serum cholesterol, change in percentage (A: referred to the initial value)” value is listed as -29%; the “serum triglyceride, change in percentage (A: referred to the initial value)” value was -53%; the “serum cholesterol, change in percentage (B: referred to the untreated control group)” value was -26%; the “serum triglyceride, change in percentage (B: referred to the untreated control group)” value is recorded as -23%. Further, the change in vivo at 100 mg/kg in data set [1] (setting [4]) is -30%. Moreover, the change in vivo at 100 mg/kg in data set [1] (setting [5]) is -30%. Besides, the change in vivo at 100 mg/kg in data set [1] (setting [6]) was -34%. For the same compound, in data set [2], the change in vivo at 30 mg/kg was -19% and the change in vivo at 100 mg/kg is -35%. In addition, in data set [3], the “lowering of the blood sugar level in per cent” value (shortened to “lowering … per cent”) was -24 per cent. The LD50 mice p.o. in the data set with mice is above 8000 mg/kg. Besides, the LD50 in “in vivo” is above 8000 mg/kg.
`CCCCOC(=O)CCC(C)(c1ccc(O)c(C(C)(C)C)c1)c1ccc(O)c(C(C)(C)C)c1` [Example 15, 4,4-Bis(4'-hydroxy-3'-tert.-butyl-phenyl)pentanoic acid n-butyl ester]: the “serum triglyceride, change in percentage (A: referred to the initial value)” value in the data set on normolipemic rats (10 mg/kg/day p.o.) was -20%; in the data set with normolipemic rats (30 mg/kg/day p.o.), -32%; in the data set on normolipemic rats (100 mg/kg/day p.o.), -36%. In addition, the “serum triglyceride, change in percentage (B: referred to the untreated control group)” value in the data set with normolipemic rats (10 mg/kg/day p.o.) is -34%; in the data set on normolipemic rats (30 mg/kg/day p.o.) it was -37%; in the data set with normolipemic rats (100 mg/kg/day p.o.), -13%. The “serum cholesterol, change in percentage (A: referred to the initial value)” value in the data set with normolipemic rats (30 mg/kg/day p.o.) is reported as -13%; in the data set on normolipemic rats (100 mg/kg/day p.o.), -37%. For the same compound, the “serum cholesterol, change in percentage (B: referred to the untreated control group)” value in the data set on normolipemic rats (30 mg/kg/day p.o.) was -10%; in the data set with normolipemic rats (100 mg/kg/day p.o.) it was -20%. The change in vivo at 100 mg/kg in data set [1] (setting [4]) is -57%; in data set [1] (setting [5]), -53%; in data set [1] (setting [6]) it was -34%; in data set [2], -28%. For the same compound, the LD50 mice p.o. with mice was above 8000 mg/kg. For the same compound, the LD50 in the data set “in vivo” was above 8000 mg/kg.
`CC(CCC(=O)O)(c1ccc(O)cc1)c1ccc(O)cc1` [Example 19, 4,4-Bis(4'-hydroxy-phenyl)pentanoic acid]: the change in vivo at 100 mg/kg in data set [1] (setting [4]) is -17%; in data set [1] (setting [5]), -17%; in data set [1] (setting [6]), -28%; in data set [2], -27%. Further, the “lowering … per cent” value in data set [3] is reported as -20 per cent.
Regarding `CCOC(=O)C(C)(C)Oc1ccc(Cl)cc1` [Clofibrat, reference compound], the “serum cholesterol, change in percentage (A: referred to the initial value)” value with normolipemic rats (100 mg/kg/day p.o.) is on record as -22%. Also, in the data set with normolipemic rats (100 mg/kg/day p.o.), the “serum triglyceride, change in percentage (A: referred to the initial value)” value is recorded as -48%. For the same compound, the “serum cholesterol, change in percentage (B: referred to the untreated control group)” value with normolipemic rats (100 mg/kg/day p.o.) is given as -15%. The “serum triglyceride, change in percentage (B: referred to the untreated control group)” value in the data set on normolipemic rats (100 mg/kg/day p.o.) is on record as -37%. Also, the change in vivo at 100 mg/kg in data set [1] (setting [4]) was 0%; in data set [1] (setting [5]), -12%; in data set [1] (setting [6]), -27%; in data set [2], -15%. Moreover, the LD50 in the data set “in vivo” (LD50 mice p.o., mice, Table 3) was in the range of 2000 to 2500 mg/kg; in “in vivo” (p.o. LD50 mice, mice, Table 2), 2000 to 25000 mg/kg.
Consider `CCCCOC(=O)CC(C)(c1ccc(O)c(C)c1)c1ccc(O)c(C)c1` [Example 8, 3,3-bis(4'-hydroxy-3'-methyl-phenyl)butanoic acid n-butyl ester], for which the “serum cholesterol, change in percentage (B: referred to the untreated control group)” value with normolipemic rats (10 mg/kg/day p.o.) is recorded as -13%; with normolipemic rats (30 mg/kg/day p.o.), -16%; in the data set on normolipemic rats (100 mg/kg/day p.o.), -26%. The “serum triglyceride, change in percentage (B: referred to the untreated control group)” value is listed as -25% in the data set on normolipemic rats (10 mg/kg/day p.o.) and -22% in the data set on normolipemic rats (30 mg/kg/day p.o.). The “serum cholesterol, change in percentage (A: referred to the initial value)” value in the data set with normolipemic rats (30 mg/kg/day p.o.) is -14%; in the data set with normolipemic rats (100 mg/kg/day p.o.) it was -43%. Also, the “serum triglyceride, change in percentage (A: referred to the initial value)” value in the data set on normolipemic rats (100 mg/kg/day p.o.) was -23%. Also, the change in vivo at 100 mg/kg in data set [1] (setting [4]) was -36%; in data set [1] (setting [5]), -37%; in data set [1] (setting [6]) it was -39%. Besides, in the data set with mice, the LD50 mice p.o. is listed as above 8000 mg/kg. This compound displayed an LD50 in the data set “in vivo” above 8000 mg/kg.
Consider `CC(C)(C)c1cc(C(C)(CC(=O)OCCCCCCOC(=O)CC(C)(c2ccc(O)c(C(C)(C)C)c2)c2ccc(O)c(C(C)(C)C)c2)c2ccc(O)c(C(C)(C)C)c2)ccc1O` [Example 17, Bis [3,3-bis(4'-hydroxy-3'-tert.-butyl-phenyl)butanoic acid]hexane-diol-1,6ester], for which the change in vivo at 100 mg/kg in data set [2] was -10%. The “lowering … per cent” value in data set [3] is recorded as -18 per cent. The compound also displayed an LD50 in the data set “in vivo” above 8000 mg/kg.
On to `CC(C)(C)c1cc(C(C(=O)O)c2cc(C(C)(C)C)c(O)c(C(C)(C)C)c2)cc(C(C)(C)C)c1O` [Example 3, Bis(4'-hydroxy-3',5'-di-tert.butyl-phenyl)ethanoic acid], for which the results for the “serum cholesterol, change in percentage (A: referred to the initial value)” value with normolipemic rats (10 mg/kg/day p.o.), in the data set on normolipemic rats (30 mg/kg/day p.o.) and in the data set on normolipemic rats (100 mg/kg/day p.o.) were -24%, -32% and -61%, respectively. Further, the “serum cholesterol, change in percentage (B: referred to the untreated control group)” value was -21% in the data set with normolipemic rats (10 mg/kg/day p.o.), -22% with normolipemic rats (30 mg/kg/day p.o.) and -52% in the data set on normolipemic rats (100 mg/kg/day p.o.). Moreover, the entries for the “serum triglyceride, change in percentage (B: referred to the untreated control group)” value with normolipemic rats (10 mg/kg/day p.o.), in the data set with normolipemic rats (30 mg/kg/day p.o.) and in the data set on normolipemic rats (100 mg/kg/day p.o.) were -29%, -46% and -60%, respectively. Besides, the results for the “serum triglyceride, change in percentage (A: referred to the initial value)” value in the data set with normolipemic rats (30 mg/kg/day p.o.) and with normolipemic rats (100 mg/kg/day p.o.) were -39% and -70%, respectively. Also, the change in vivo at 100 mg/kg in data set [1] (setting [4]) is -23%; in data set [1] (setting [5]), -26%; in data set [1] (setting [6]) it was -44%; in data set [2], -37%. Further, the change in vivo at 30 mg/kg in data set [2] is -36%. In data set [3], the “lowering … per cent” value is -15 per cent. The LD50 mice p.o. in the data set on mice was in the range of 6000 to 8000 mg/kg. This compound registered an LD50 in the data set “in vivo” of 6000 to 8000 mg/kg.
Regarding `CCCCOC(=O)C(c1ccc(O)c(C(C)(C)C)c1)c1ccc(O)c(C(C)(C)C)c1` [Example 5, Bis(4'-hydroxy-3'-tert.-butyl-phenyl)ethanoic acid n-butyl ester], the “lowering … per cent” value in data set [3] is -30 per cent.
